Results: patent publication US12662489B2 (Sitryx Therapeutics Limited, priority 2023, dated 2026)

Experiments:
[1] = target: T1, MTHFD2 recombinant human enzyme (Homo sapiens, UniProt P13995); test: MTHFD2 inhibition assay (NAD(P)H-Glo luminescence); details: for MTHFD1/MTHFD2 IC50 ratio: selectivity of MTHFD2 inhibition over MTHFD1, band
T1 sequence (P13995 36-350): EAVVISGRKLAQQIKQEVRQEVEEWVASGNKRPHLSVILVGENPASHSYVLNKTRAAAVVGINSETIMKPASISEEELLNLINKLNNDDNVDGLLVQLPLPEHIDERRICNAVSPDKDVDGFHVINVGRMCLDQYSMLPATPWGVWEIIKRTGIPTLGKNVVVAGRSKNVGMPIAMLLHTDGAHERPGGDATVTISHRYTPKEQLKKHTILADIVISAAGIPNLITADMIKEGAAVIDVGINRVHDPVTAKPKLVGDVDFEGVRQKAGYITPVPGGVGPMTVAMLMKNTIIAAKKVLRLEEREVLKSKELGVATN

[2] = target: T2, MTHFD1 recombinant human enzyme (Homo sapiens, UniProt P11586); test: MTHFD1 inhibition assay (NAD(P)H-Glo luminescence); details: MTHFD1 IC50, recombinant human enzyme 200 nM, NADP, band
T2 sequence (P11586 2-291 limits assumed): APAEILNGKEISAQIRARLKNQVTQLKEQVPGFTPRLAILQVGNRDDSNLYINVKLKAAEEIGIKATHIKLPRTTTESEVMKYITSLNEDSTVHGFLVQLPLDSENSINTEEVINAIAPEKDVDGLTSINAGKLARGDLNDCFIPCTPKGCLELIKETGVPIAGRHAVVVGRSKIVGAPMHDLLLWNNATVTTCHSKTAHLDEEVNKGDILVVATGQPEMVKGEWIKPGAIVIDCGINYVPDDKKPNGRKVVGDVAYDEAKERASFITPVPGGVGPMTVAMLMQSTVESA

Compound	IC50 [1] [nM]	MTHFD1/MTHFD2 IC50 ratio [1]	IC50 [2] [nM]
COC[C@H]1CN(c2ccc3c4c(c(=O)oc3c2C)CN(C(=O)c2cc(Cl)c(C(=O)NS(=O)(=O)N3CCCC3)c(N3CC5CC5C3)c2)CC4)CCN1C (stereo partly drawn) [Example 105, 2-(3-azabicyclo[3.1.0]hexan-3-yl)-6-chloro-4-(8-((R)-3-(methoxymethyl)-4-methylpiperazin-1-yl)-7-methyl-5-oxo-1,3,4,5-tetrahydro-2H-chromeno[3,4-c]pyridine-3-carbonyl)-N-(pyrrolidin-1-ylsulfonyl)benzamide]	100 to 1000	G (^ 3 to 9.0)	100 to 1000
COC[C@H]1CN(c2ccc3c4c(c(=O)oc3c2Cl)CN(C(=O)c2ccc(C(=O)NS(=O)(=O)N3CCCC3)c(O[C@@H]3C[C@@H]5C[C@@H]5C3)c2F)CC4)CCN1C [Example 62, 2-(((1R,3r,5S)-bicyclo[3.1.0]hexan-3-yl)oxy)-4-(7-chloro-8-((R)-3-(methoxymethyl)-4-methylpiperazin-1-yl)-5-oxo-1,3,4,5-tetrahydro-2H-chromeno[3,4-c]pyridine-3-carbonyl)-3-fluoro-N-(pyrrolidin-1-ylsulfonyl)benzamide]	10 to 100	F (<3)	1 to 10
COC[C@H]1CN(c2cc(C)c3c4c(c(=O)oc3c2C)CN(C(=O)c2ccc(C(=O)NS(=O)(=O)N(C)C)c(N3CCCC(F)(F)C3)c2F)CC4)CCN1C [Example 78, (R)-2-(3,3-difluoropiperidin-1-yl)-N-(N,N-dimethylsulfamoyl)-3-fluoro-4-(8-(3-(methoxymethyl)-4-methylpiperazin-1-yl)-7,10-dimethyl-5-oxo-1,3,4,5-tetrahydro-2H-chromeno[3,4-c]pyridine-3-carbonyl)benzamide]	1 to 10	–	1 to 10
COC[C@H]1CN(c2ccc3c4c(c(=O)oc3c2C)CN(C(=O)c2ccc(C(=O)NS(=O)(=O)C3(C)CC3)c(N(C)C)c2F)CC4)CCN1C [Example 137, (R)-2-(dimethylamino)-3-fluoro-4-(8-(3-(methoxymethyl)-4-methylpiperazin-1-yl)-7-methyl-5-oxo-1,3,4,5-tetrahydro-2H-chromeno[3,4-c]pyridine-3-carbonyl)-N-((1-methylcyclopropyl)sulfonyl)benzamide]	10 to 100	G (^ 3 to 9.0)	100 to 1000
COC[C@H]1CN(c2ccc3c4c(c(=O)oc3c2C)CN(C(=O)c2ccc(C(=O)NS(=O)(=O)N(C)C(C)C)c(OC3CCCC3)c2F)CC4)CCN1C [Example 58, (R)-2-(cyclopentyloxy)-3-fluoro-N-(N-isopropyl-N-methylsulfamoyl)-4-(8-(3-(methoxymethyl)-4-methylpiperazin-1-yl)-7-methyl-5-oxo-1,3,4,5-tetrahydro-2H-chromeno[3,4-c]pyridine-3-carbonyl)benzamide]	1 to 10	–	1 to 10
CCOc1c(C(=O)NS(=O)(=O)N(C)C)ccc(C(=O)N2CCc3c(c(=O)oc4c(C)c(N5CCN(C)[C@@H](COC)C5)cc(C)c34)C2)c1F [Example 146, (R)-N-(N,N-dimethylsulfamoyl)-2-ethoxy-3-fluoro-4-(8-(3-(methoxymethyl)-4-methylpiperazin-1-yl)-7,10-dimethyl-5-oxo-1,3,4,5-tetrahydro-2H-chromeno[3,4-c]pyridine-3-carbonyl)benzamide]	1 to 10	F (<3)	10 to 100
COC[C@H]1CN(c2ccc3c4c(c(=O)oc3c2C)CN(C(=O)c2ccc(C(=O)NS(=O)(=O)N(C)C)c(N3C5CCC3CC5)c2)CC4)CCN1C [Example 16, (R)-2-(7-azabicyclo[2.2.1]heptan-7-yl)-N-(N,N-dimethylsulfamoyl)-4-(8-(3-(methoxymethyl)-4-methylpiperazin-1-yl)-7-methyl-5-oxo-1,3,4,5-tetrahydro-2H-chromeno[3,4-c]pyridine-3-carbonyl)benzamide]	1 to 10	F (<3)	1 to 10
COC[C@H]1CN(c2cc(C)c3c4c(c(=O)oc3c2C)CN(C(=O)c2ccc(C(=O)NS(=O)(=O)N3C5CCC3CC5)cc2Cl)CC4)CCN1C [Example 185, (R)-N-((7-azabicyclo[2.2.1]heptan-7-yl)sulfonyl)-3-chloro-4-(8-(3-(methoxymethyl)-4-methylpiperazin-1-yl)-7,10-dimethyl-5-oxo-1,3,4,5-tetrahydro-2H-chromeno[3,4-c]pyridine-3-carbonyl)benzamide]	100 to 1000	H (>9.0 to 30)	> 5000

Other lines, results leading:

IC50 [1] [nM]	MTHFD1/MTHFD2 IC50 ratio [1]	IC50 [2] [nM]	Compound
10 to 100	G (^ 3 to 9.0)	10 to 100	CCOc1c(C(=O)NS(=O)(=O)N2CCCCC2)ccc(C(=O)N2CCc3c(c(=O)oc4c(C)c(N5CCN(C)[C@@H](COC)C5)cc(C)c34)C2)c1F [Example 197, (R)-2-ethoxy-3-fluoro-4-(8-(3-(methoxymethyl)-4-methylpiperazin-1-yl)-7,10-dimethyl-5-oxo-1,3,4,5-tetrahydro-2H-chromeno[3,4-c]pyridine-3-carbonyl)-N-(piperidin-1-ylsulfonyl)benzamide]
10 to 100	J (>30)	1000 to 5000	COC[C@H]1CN(c2cc(Cl)c3c4c(c(=O)oc3c2C)CN(C(=O)c2cc(N(C)C)c(C(=O)NS(=O)(=O)N3CCC[C@H]3C(F)(F)F)cc2F)CC4)CCN1C [Example 295, 4-(10-chloro-8-((R)-3-(methoxymethyl)-4-methylpiperazin-1-yl)-7-methyl-5-oxo-1,3,4,5-tetrahydro-2H-chromeno[3,4-c]pyridine-3-carbonyl)-2-(dimethylamino)-5-fluoro-N-(((S)-2-(trifluoromethyl)pyrrolidin-1-yl)sulfonyl)benzamide]
100 to 1000	H (>9.0 to 30)	> 5000	COC[C@H]1CN(c2ccc3c4c(c(=O)oc3c2)CN(C(=O)c2ccc(C(=O)NS(=O)(=O)N3CCCC3)c(OC3CCCC3)c2F)CC4)CCN1C [Example 183, (R)-2-(cyclopentyloxy)-3-fluoro-4-(8-(3-(methoxymethyl)-4-methylpiperazin-1-yl)-5-oxo-1,3,4,5-tetrahydro-2H-chromeno[3,4-c]pyridine-3-carbonyl)-N-(pyrrolidin-1-ylsulfonyl)benzamide]
10 to 100	G (^ 3 to 9.0)	10 to 100	CCOc1c(C(=O)NS(=O)(=O)N2CC3CC3C2)ccc(C(=O)N2CCc3c(c(=O)oc4c(C)c(N5CCN(C)[C@@H](COC)C5)cc(C)c34)C2)c1F (stereo partly shown) [Example 229]
10 to 100	J (>30)	100 to 1000	COC[C@H]1CN(c2cc(Cl)c3c4c(c(=O)oc3c2C)CN(C(=O)c2cc(OC3CC3)c(C(=O)NS(=O)(=O)N(C)C)cc2F)CC4)CCN1C [Example 306, (R)-4-(10-chloro-8-(3-(methoxymethyl)-4-methylpiperazin-1-yl)-7-methyl-5-oxo-1,3,4,5-tetrahydro-2H-chromeno[3,4-c]pyridine-3-carbonyl)-2-cyclopropoxy-N-(N,N-dimethylsulfamoyl)-5-fluorobenzamide]
